According to paper PMC7794376 (Nature Communications, 2021):
≈ marks a conversion by molar mass, not a printed value. Where “and” joins values, the source holds several entries; their conditions need not be identical. Equal values may be shown once. Read-outs that look alike come from different tables or passages of the source.

Legend:
MtbCoaBC [1] = biological target: T1, MtbCoaBC (Mycobacterium tuberculosis, UniProt P9WNZ1); experiment: High-throughput end-point pyrophosphate quantification assay (Biomol Green); assay type: biochemical
T1 sequence (P9WNZ1 whole entry): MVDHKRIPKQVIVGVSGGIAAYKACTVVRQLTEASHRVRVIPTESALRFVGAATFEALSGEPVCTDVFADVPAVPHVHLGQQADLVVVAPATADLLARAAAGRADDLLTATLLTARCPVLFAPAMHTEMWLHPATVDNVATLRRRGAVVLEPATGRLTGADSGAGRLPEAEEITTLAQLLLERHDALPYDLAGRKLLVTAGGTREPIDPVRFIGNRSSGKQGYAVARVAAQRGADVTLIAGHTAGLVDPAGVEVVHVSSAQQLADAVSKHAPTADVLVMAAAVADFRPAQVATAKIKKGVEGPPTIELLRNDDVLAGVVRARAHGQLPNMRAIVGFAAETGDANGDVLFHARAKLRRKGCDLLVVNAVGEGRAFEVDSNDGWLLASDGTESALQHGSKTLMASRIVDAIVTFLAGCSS

M. tuberculosis H37Rv = experiment: MIC determination in different media; assay type: cell-based; settings: Mycobacterium tuberculosis, read-out: Minimum inhibitory concentration (MIC)
MtbCoaBC [2] = biological target: T1, MtbCoaBC; experiment: biochemical; assay type: biochemical; settings: for IC50: read-out: IC50 EnzChek MtbCoaBC; for Activity %: relative to average CT; for Activity: slope of absorbance at 360 nm vs time (s); for inhibition, replicates / reaction rate (slope of absorbance at 360 nm over time), replicates: IC50 MtbCoaBC AcCoA
MtbCoaBC [3] = biological target: T1, MtbCoaBC; experiment: Competition assays, first half of CoaB reaction (EnzChek, variable CTP or PPA); assay type: biochemical; settings: for mode of inhibition: in words
MtbCoaBC [4] = biological target: T1, MtbCoaBC; experiment: CMP quantification assay (UPLC), second half of CoaB reaction, variable L-cysteine; assay type: biochemical; settings: for CMP formation rate, uM CMP/uM protein.s-1: MtbCoaBC 32nM, replicates R1-R3
[5] = MtbCoaB activity, end-point, 2 µM CTP, 40 µM L-cysteine, 30 µM PPA, read-out: IC50 biomol green assay
[6] = uM 1c 0.125 as printed, replicates R1-R3
[7] = AcCoA concentration 512 (log 2.70927)
[8] = AcCoA concentration 1024 (log 3.0103)

Structure (SMILES): Oc1ccc(Cc2ccc(O)c(O)c2O)cc1 [compound 1c]
- IC50 (MtbCoaBC [1]; [5]): 4.7 µM
- MIC (M. tuberculosis H37Rv; 7H9/ADC/Glycerol): > 250 µM
- MIC (M. tuberculosis H37Rv; GAST/Fe): 125 µM (≈ 29 µg/mL)
- IC50 (MtbCoaBC [2]): 4.6 ± 0.4 µM
- remaining activity at 0.03125 µM (MtbCoaBC [2]; uM 1c 0.03125 as printed, replicates R1-R3): 94.6%
- remaining activity at 0.0625 µM (MtbCoaBC [2]; uM 1c 0.0625 as printed, replicates R1-R3): 87.8%
- inhibition at 0.0625 µM (MtbCoaBC [2]; uM 1c 0.0625 as printed, replicates R1-R3, read-out: Inhibition %): 17.8%
- inhibition at […] (MtbCoaBC [2]; [6]): 29.1%
- remaining activity at […] (MtbCoaBC [2]; [6]): 74.8%
- remaining activity at 0.25 µM (MtbCoaBC [2]; uM 1c 0.25 as printed, replicates R1-R3): 65.6%
- inhibition at 0.25 µM (MtbCoaBC [2]; uM 1c 0.25 as printed, replicates R1-R3, read-out: Inhibition %): 40.6%
- remaining activity at 0.5 µM (MtbCoaBC [2]; uM 1c 0.5 as printed, replicates R1-R3): 40.9%
- inhibition at 0.5 µM (MtbCoaBC [2]; uM 1c 0.5 as printed, replicates R1-R3, read-out: Inhibition %): 68.6%
- inhibition at 1 µM (MtbCoaBC [2]; uM 1c 1 as printed, replicates R1-R3, read-out: Inhibition %): 89.7%
- inhibition at 2 µM (MtbCoaBC [2]; uM 1c 2 as printed, replicates R1-R3, read-out: Inhibition %): 95%

Structure (SMILES): CC(=O)SCCNC(=O)CCNC(=O)[C@H](O)C(C)(C)COP(=O)(O)OP(=O)(O)OC[C@H]1O[C@@H](n2cnc3c(N)ncnc32)[C@H](O)[C@@H]1OP(=O)(O)O [AcCoA, acetyl-CoA]
- mode of inhibition (MtbCoaBC [3]; relative to CTP): competitive
- mode of inhibition (MtbCoaBC [3]; relative to PPA): competitive
- Inibition type (MtbCoaBC [3]; variable substrate CTP): C (C competitive inhibition)
- Ki (MtbCoaBC [3]; variable substrate CTP): 22.5 ± 1.7 µM
- Inibition type (MtbCoaBC [3]; variable substrate PPA): C (C competitive inhibition)
- Ki (MtbCoaBC [3]; variable substrate PPA): 22.4 ± 1.4 µM
- CMP formation rate, uM CMP/uM protein.s-1 (MtbCoaBC [4]; 32uM AcCoA, 31.25 uM cysteine): 0.1004 uM CMP/uM protein.s-1 and 0.1195 uM CMP/uM protein.s-1 and 0.1103 uM CMP/uM protein.s-1
- CMP formation rate, uM CMP/uM protein.s-1 (MtbCoaBC [4]; 32uM AcCoA, 62.5 uM cysteine): 0.1434 uM CMP/uM protein.s-1 and 0.1547 uM CMP/uM protein.s-1 and 0.1394 uM CMP/uM protein.s-1
- CMP formation rate, uM CMP/uM protein.s-1 (MtbCoaBC [4]; 32uM AcCoA, 250 uM cysteine): 0.2114 uM CMP/uM protein.s-1 and 0.2235 uM CMP/uM protein.s-1 and 0.2345 uM CMP/uM protein.s-1
- CMP formation rate, uM CMP/uM protein.s-1 (MtbCoaBC [4]; 32uM AcCoA, 500 uM cysteine): 0.2276 uM CMP/uM protein.s-1 and 0.2314 uM CMP/uM protein.s-1 and 0.2458 uM CMP/uM protein.s-1
- CMP formation rate, uM CMP/uM protein.s-1 (MtbCoaBC [4]; 64uM AcCoA, 31.25 uM cysteine): 0.08802 uM CMP/uM protein.s-1 and 0.06801 uM CMP/uM protein.s-1 and 0.07425 uM CMP/uM protein.s-1
- CMP formation rate, uM CMP/uM protein.s-1 (MtbCoaBC [4]; 64uM AcCoA, 62.5 uM cysteine): 0.1006 uM CMP/uM protein.s-1 and 0.1253 uM CMP/uM protein.s-1 and 0.1155 uM CMP/uM protein.s-1
- CMP formation rate, uM CMP/uM protein.s-1 (MtbCoaBC [4]; 64uM AcCoA, 250 uM cysteine): 0.1479 uM CMP/uM protein.s-1 and 0.156 uM CMP/uM protein.s-1 and 0.1565 uM CMP/uM protein.s-1
- CMP formation rate, uM CMP/uM protein.s-1 (MtbCoaBC [4]; 64uM AcCoA, 500 uM cysteine): 0.1756 uM CMP/uM protein.s-1 and 0.1564 uM CMP/uM protein.s-1 and 0.1555 uM CMP/uM protein.s-1
- CMP formation rate, uM CMP/uM protein.s-1 (MtbCoaBC [4]; 128uM AcCoA, 31.25 uM cysteine): 0.04605 uM CMP/uM protein.s-1 and 0.05632 uM CMP/uM protein.s-1 and 0.0514 uM CMP/uM protein.s-1
- CMP formation rate, uM CMP/uM protein.s-1 (MtbCoaBC [4]; 128uM AcCoA, 62.5 uM cysteine): 0.06616 uM CMP/uM protein.s-1 and 0.09648 uM CMP/uM protein.s-1 and 0.09325 uM CMP/uM protein.s-1
- CMP formation rate, uM CMP/uM protein.s-1 (MtbCoaBC [4]; 128uM AcCoA, 250 uM cysteine): 0.09625 uM CMP/uM protein.s-1 and 0.1011 uM CMP/uM protein.s-1 and 0.1018 uM CMP/uM protein.s-1
- CMP formation rate, uM CMP/uM protein.s-1 (MtbCoaBC [4]; 128uM AcCoA, 500 uM cysteine): 0.1011 uM CMP/uM protein.s-1 and 0.1154 uM CMP/uM protein.s-1 and 0.1123 uM CMP/uM protein.s-1
- mode of inhibition (MtbCoaBC [4]; relative to L-cysteine, in words): non-competitive inhibition
- Ki (MtbCoaBC [4]; variable substrate L-cysteine): 62.1 ± 2 µM
- Activity % (MtbCoaBC [2]; 8 uM AcCoA, replicates R1-R3): 102.2% and 99.12% and 97.26%
- Inhibition % (MtbCoaBC [2]; 8 uM AcCoA, replicates R1-R3): 0.88% and 2.74% and -2.21%
- Activity (MtbCoaBC [2]; 8 uM AcCoA, replicates R1-R3): 0.0001687 and 0.0001636 and 0.0001606
- Activity % (MtbCoaBC [2]; 16 uM AcCoA, replicates R1-R3): 97.8% and 95.95%
- Inhibition % (MtbCoaBC [2]; 16 uM AcCoA, replicates R1-R3): 2.20% and 4.05%
- Activity (MtbCoaBC [2]; 16 uM AcCoA, replicates R1-R3): 0.0001621 and 0.0001615 and 0.0001584
- Activity % (MtbCoaBC [2]; 32 uM AcCoA, replicates R1-R3): 83.56% and 84.79% and 80.02%
- Inhibition % (MtbCoaBC [2]; 32 uM AcCoA, replicates R1-R3): 15.21% and 19.98% and 16.44%
- Activity (MtbCoaBC [2]; 32 uM AcCoA, replicates R1-R3): 0.0001379 and 0.00014 and 0.0001321
- Activity % (MtbCoaBC [2]; 64 uM AcCoA, replicates R1-R3): 72.03% and 75.67% and 69.98%
- Inhibition % (MtbCoaBC [2]; 64 uM AcCoA, replicates R1-R3): 24.33% and 30.02% and 27.97%
- Activity (MtbCoaBC [2]; 64 uM AcCoA, replicates R1-R3): 0.0001189 and 0.0001249 and 0.0001155
- Activity % (MtbCoaBC [2]; 128 uM AcCoA, replicates R1-R3): 46.95% and 48.75% and 44.16%
- Inhibition % (MtbCoaBC [2]; 128 uM AcCoA, replicates R1-R3): 51.25% and 55.84% and 53.05%
- Activity (MtbCoaBC [2]; 128 uM AcCoA, replicates R1-R3): 0.000077520 and 0.000080489 and 0.000072900
- Activity % (MtbCoaBC [2]; 256 uM AcCoA, replicates R1-R3): 25.68% and 25.48% and 26.76%
- Inhibition % (MtbCoaBC [2]; 256 uM AcCoA, replicates R1-R3): 74.52% and 73.24% and 74.32%
- Activity (MtbCoaBC [2]; 256 uM AcCoA, replicates R1-R3): 0.000042403 and 0.000042072 and 0.000044186
- IC50 (MtbCoaBC [2]; CoaB activity, […] CTP, […] PPA, 500 µM L-cysteine, average of three independent experiments ± SD): 121 ± 9 µM
- inhibition, replicates (MtbCoaBC [2]; [7]): 81.65 and 87.30 and 84.02
- reaction rate (slope of absorbance at 360 nm over time), replicates (MtbCoaBC [2]; [7]): 0.000026380 and 0.000030299 and 0.000020964
- inhibition, replicates (MtbCoaBC [2]; [8]): 99.03 and 98.19 and 97.42
- reaction rate (slope of absorbance at 360 nm over time), replicates (MtbCoaBC [2]; [8]): 0.000004262 and 0.000001602 and 0.000002982

Structure (SMILES): O=C(c1ccccc1)c1ccc(O)c(O)c1O [compound 1a]
- IC50 (MtbCoaBC [1]; [5]): 9 µM

Structure (SMILES): O=c1cc(-c2ccccc2)oc2cc(O)c(O)c(O)c12 [2a]
- IC50 (MtbCoaBC [1]): 3.1 µM
